Read-outs that look alike come from different tables or passages of the source.
Assays:
MYB = assay: HiBiT protein abundance assay, MYB HiBiT K562 cell line; assay type: cell-based, human; details: 24 hours, top dose 10 μM
Protocol: (§1) Compounds described herein were used to screen for effects on quantitative protein abundance using a HiBit assay system (Promega). Quantitative protein abundance was determined by measuring the protein levels of HiBit-tagged protein targets expressed in cell culture via luminescence using the Nano-Glo HiBiT Lytic Detection System, which uses a split complementation assay format to reconstitute NanoBiT enzyme to generate a luminescent signal. A protein abundance assay was developed such that endogenous protein targets could be modified with the HiBiT peptide tag and their abundance could be assessed after compound treatment. Briefly, K562 cell lines containing a HiBiT-modification were treated with various compounds described herein (e.g., compounds of Formulas (I), (II), (III), (IV), (V), (VI), (VII), (VIII), or (IX)). After treatment for 24 hours, the protein abundance of a specific target was determined by measuring luminescence.
(§2) • Promega Nano-Glo HiBiT Lytic Detection System (cat #N3030) • Corning 384-well TC-treated microplates (cat #3570) • Synthego Engineered Cells Knock-In Clones
(§3) Cells were maintained in IMDM with 10% FBS. Before the assay, cells were diluted with […] growth media (IMDM+[…] media) and were seeded in a 384-well plate at a density of 10,000 cells/well (for each cell line listed in Table 5). Each compound was prepared as a 10-point 3-fold serial dilution in DMSO with the top dose at a final concentration of 10 μM in the well. Unmodified K562 cells were added at the previously specified density with DMSO to serve as an assay baseline and positive control (PC) and DMSO only with the respective modified cell lines was added to the negative control (NC) columns. Final DMSO concentration was kept at or below 0.25%. Treated cell plates were placed in an incubator at 37° C. with […] for 24 hours. After 24 hours, 25 μL of Complete HiBit Lytic reagent was added to each well at room temperature (e.g. one plate requiring 10 mL Lytic Buffer, 100 μL LgBiT Protein, 200 μL Lytic Substrate), shaken for 5 minutes at 600 RPM, then left to sit for 10 minutes for signal to stabilize before reading on a Spark Cyto plate reader (Tecan) with a 500 ms measurement time.
(§4) To determine compound effects on protein abundance of each target in Table 5, the percent response for each respective cell line was calculated at each compound concentration as follows:
(§5) For the normalized response at each concentration, a four-parameter logistical regression was fit to the data and the response was interpolated at the […] to determine a concentration for protein abundance at […] the untreated control.

HTT = assay: HiBiT protein abundance assay, HTT HiBiT K562 cell line; assay type: cell-based, human; details: 24 hours, top dose 10 μM
Protocol: as §1, §2, §3, §4, §5

[1] = tested on: K562 (human chronic myelogenous leukemia) cells; assay: Cell Titer Glo 2.0 cell viability assay; assay type: cell-based; details: Homo sapiens, K562, 72 h, K562 cells, 72 hours, Cell Titer Glo 2.0; read-out: K562 GI50
Target C [2] = assay: HiBiT protein abundance assay, Target C HiBiT K562 cell line; assay type: cell-based; details: Homo sapiens; HiBiT lytic detection, modified K562 cells, 24 hours, top dose 10 μM; read-out: Effect on protein abundance, Target C (IC50)
Protocol: as §2, §3, §4, §5

HTT mRNA = assay: RT-qPCR splicing assay, HTT canonical junction (CJ) and alternative junction (AJ) mRNA; assay type: cell-based, human; details: Homo sapiens; for AC50: increase in HTT alternative junction (AJ) mRNA, read-out: HTT AJ AC50
Procedure, shortened: (§6)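 A673 or K562 cells were treated for 24 h at 37 °C with an 11-point 3-fold compound dilution series (top final concentration 10 uM, DMSO ≤0.25%). After lysis, one-step TaqMan RT-qPCR quantified junction transcripts, normalized to PPIA for A673 or to GAPDH/GUSB for K562.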

SMN2 mRNA = assay: RT-qPCR splicing assay, SMN2 canonical junction (CJ) mRNA; assay type: cell-based, human; details: Homo sapiens
Procedure, shortened: (§7)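 A673 cells (DMEM/10% FBS) or K562 cells (IMDM/10% FBS) were treated 24 h at 37° C. with 11-point 3-fold dilutions (top 10 uM, ≤0.25% DMSO). Canonical-junction mRNA was quantified in lysates by RT-qPCR, normalized to GAPDH, GUSB or PPIA.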

Target C [3] = assay: RT-qPCR splicing assay panel, Target C canonical junction (CJ) mRNA; assay type: cell-based, human; details: Homo sapiens
Procedure, shortened: as §7

MYB mRNA = assay: RT-qPCR splicing assay, MYB canonical junction (CJ) and alternative junction (AJ) mRNA; assay type: cell-based, human; details: Homo sapiens; for AC50: increase in MYB alternative junction (AJ) mRNA, read-out: MYB AJ AC50
Procedure, shortened: as §6

Target C [4] = assay: HiBiT protein abundance assay, Target C (Promega Nano-Glo HiBiT Lytic Detection System, knock-in K562 cell line); assay type: cell-based, human; details: Homo sapiens, K562, 24 h, HiBiT K562 cell line, 24 hours, top dose 10 μM; read-out: Effect on protein abundance, Target C (IC50 category)
Protocol: as §2, §3, §4, §5

[5] = HiBiT lytic detection, modified K562 cells, read-out: Effect on protein abundance, MYB (IC50)
[6] = HiBiT lytic detection, modified K562 cells, read-out: Effect on protein abundance, HTT (IC50)
[7] = decrease in HTT canonical junction (CJ) mRNA, RT-qPCR, read-out: HTT CJ IC50
[8] = canonical junction qPCR panel, Table 5, read-out: HTT (decrease in CJ mRNA levels, IC50)
[9] = canonical junction qPCR panel, Table 5, read-out: SMN2 (decrease in CJ mRNA levels, IC50)
[10] = canonical junction qPCR panel, Table 5, read-out: MYB (decrease in CJ mRNA levels, IC50)
[11] = decrease in MYB canonical junction (CJ) mRNA, RT-qPCR, read-out: MYB CJ IC50

| SMILES | IC50 (MYB; [5]) [µM] | IC50 (HTT; [6]) [µM] | GI50 [1] [µM] | IC50 (Target C [2]) [µM] | IC50 (HTT mRNA; [7]) [µM] | AC50 (HTT mRNA; RT-qPCR) [µM] | IC50 (HTT mRNA; [8]) [µM] | IC50 (SMN2 mRNA; [9]) [µM] | IC50 (Target C [3]; canonical junction qPCR panel, Table 5, read-out: Target C (decrease in CJ mRNA levels, IC50)) [µM] | IC50 (MYB mRNA; [10]) [µM] | IC50 (MYB mRNA; [11]) [µM] | AC50 (MYB mRNA; RT-qPCR) [µM] | IC50 (HTT mRNA; Table 5 panel, canonical junction qPCR, compound concentration having 50% response in CJ decrease, read-out: HTT IC50 (decrease in CJ mRNA levels)) [µM] | IC50 (MYB mRNA; Table 5 panel, canonical junction qPCR, compound concentration having 50% response in CJ decrease, read-out: MYB IC50 (decrease in CJ mRNA levels)) [µM] | IC50 (SMN2 mRNA; Table 5 panel, canonical junction qPCR, compound concentration having 50% response in CJ decrease, read-out: SMN2 IC50 (decrease in CJ mRNA levels)) [µM] | IC50 (Target C [3]; Table 5 panel, canonical junction qPCR, compound concentration having 50% response in CJ decrease, read-out: Target C IC50 (decrease in CJ mRNA levels)) [µM] | IC50 (MYB; HiBiT K562 cell line, read-out: Effect on protein abundance, MYB (IC50 category)) [µM] | IC50 (HTT; HiBiT K562 cell line, read-out: Effect on protein abundance, HTT (IC50 category)) [µM] | IC50 (Target C [4]) [µM] |
| --- | --- | --- | --- | --- | --- | --- | --- | --- | --- | --- | --- | --- | --- | --- | --- | --- | --- | --- | --- |
| Cc1cn2nc(-c3cnc4c(=O)n(C5CCNCC5)ncc4c3)cc(C)c2n1 [Compound 1411] | 1 to 10 | 1 to 10 | 1 to 10 | 1 to 10 |  |  |  |  |  |  |  |  |  |  |  |  |  |  |  |
| Cn1cc2cc(-c3cc4ncn(C5CCNCC5)c(=O)c4cn3)c(O)c(F)c2n1 [Compound 1276] | 0.1 to 1 | < 0.1 | 0.1 to 1 | < 0.1 |  |  |  |  |  |  |  |  |  |  |  |  |  |  |  |
| Cc1cc(-c2nc3cc(N4CCN(C)CC4)ccc3c(=O)[nH]2)cc2cn(C)nc12 [Compound 2214] | > 10 | > 10 | 1 to 10 | > 10 | > 10 | > 10 | > 10 | > 10 | > 10 |  |  |  |  |  |  |  |  |  |  |
| Cn1cc2cc(-n3cnc4ccc(C5=CCNCC5)cc4c3=O)ccc2n1 [Compound 2151] | > 10 | > 10 |  | > 10 | > 10 | > 10 | > 10 | > 10 |  | 0.1 to 1 | > 10 | 0.1 to 1 |  |  |  |  |  |  |  |
| Cc1cn2cc(-c3ccc4c(=O)n([C@H]5CCNC5)cc(C)c4c3)cc(F)c2n1 [Compound 451, (S)-6-(8-fluoro-2-methylimidazo[1,2-a]pyridin-6-yl)-4-methyl-2-(pyrrolidin-3-yl)isoquinolin-1(2H)-one] |  |  | 1 to 10 |  |  |  |  |  |  |  |  |  | > 10 | 1 to 10 | 0.1 to 1 | > 10 | 1 to 10 | 1 to 10 | > 10 |
| CN1CCN(c2ccc3ncn(-c4ccc5nn(C)cc5c4)c(=O)c3c2)CC1 [Compound 2154] | > 10 | > 10 |  | > 10 | > 10 | > 10 | > 10 | > 10 |  | > 10 | > 10 | > 10 |  |  |  |  |  |  |  |
| Cn1cc2cc(-n3cnc4ccc(N5CCNCC5)cc4c3=O)ccc2n1 [Compound 2155] | > 10 | > 10 |  | > 10 | > 10 | > 10 | > 10 | > 10 |  | > 10 | > 10 | > 10 |  |  |  |  |  |  |  |
